Values quoted from earlier work as cited in patent US20220175829A1, “Antimicrobial Compositions” (Matoke Holdings Limited, priority 2019, published 2022).

Conditions: 20° C. and 1 atm

solubility: about 375 g/100 g water
SMILES: O=C(CO)[C@@H](O)[C@H](O)[C@H](O)CO [Fructose]
